Measurements published in ChEMBL document CHEMBL1151586, “Design and synthesis of 10-oxo derivative of N-cyclopropylmethyl ()-6-acetylthiodihydro-normorphine, a potentially -selective opioid receptor ligand” (Bioorg Med Chem Lett, 1995).

Experiments:
Cavia porcellus [1] = organism: Cavia porcellus; experiment: Inhibition of the twitch response of the guinea pig longitudinal muscle strip to electrical stimulation in a concentration-dependent manner; assay type: functional, Muscle tissue
Cavia porcellus [2] = organism: Cavia porcellus; experiment: Inhibition of the twitch response of the guinea pig ileal strip to electrical stimulation; assay type: functional; settings: read-out: pA2 (converted)

| Structure (SMILES) | pD2 (Cavia porcellus [1]) [M] | Kb (Cavia porcellus [2]) [pM] |
| --- | --- | --- |
| CC(=O)Oc1ccc2c3c1O[C@H]1[C@H](SC(C)=O)C=CC4[C@@H](C2)N(CC2CC2)CC[C@@]341 (some centres undefined) | 8.4 | – |
| CC(=O)Oc1ccc2c3c1O[C@H]1[C@H](SC(C)=O)CCC4[C@@H](C2=O)N(CC2CC2)CC[C@@]341 (some centres undefined) | 9.03 | 35.5 |
| CN1CC[C@]23c4c5ccc(O)c4O[C@H]2[C@@H](O)C=C[C@H]3[C@H]1C5 [MORPHINE] | 7.23 | – |
